Data: patent US20110250613A1, “Arrayed Multiple Ubiquitin Binding Domains as Linkage-specific Polyubiquitin Affinity Reagents” (THE JOHNS HOPKINS UNIVERSITY, priority 2009, published 2011)
Values joined by “and” are separate entries in the source; they are usually repeats but may differ in a detail not shown here. Equal entries are not always repeated. Where no end group is shown, it is not given here. The star is where a group is joined. Fluorescein(5-Mal) = O=C1OC2(c3ccc(O)cc3Oc3cc(O)ccc32)c2ccc(N3C(=O)CC(*)C3=O)cc21

How the values were obtained:
K63-Ub2 = molecular target: T1, K63-Ub2 (Homo sapiens, UniProt P0CG47, K63R); assay: Fluorescence anisotropy binding of fluorescent tUIM peptides to K63-Ub2; conditions: fluorescence anisotropy
T1 construct: Ub and K48- and K63-linked diUb and tetraUb were made as described; made in house
From the text: Fluorescent Labeling. Rap80 tUIM peptides were fluorescently-labeled on the sulfhydryl group of C121 (see FIG. 1). For longer Rap80 constructs, all cysteines except C121 were mutated to serine for site-specific labeling. Ataxin-3 and Vps27 UIM peptides were labeled on a single cysteine introduced at the C-terminus. Fluorescein-5-maleimide (Pierce) was coupled to cysteines following the manufacturer's instructions. After desalting through Sephadex G-25 resin, fluorescein-labeled tUIM peptides were separated from unlabeled peptides by anion-exchange chromatography (MonoQ column, GE Biosciences) by elution with a NaCl gradient in 50 mM Tris buffer, pH 7.9. The labeled peptides were essentially 100% pure by SDS-PAGE and Coomassie blue staining, and MALDI-TOF mass spectrometry confirmed the addition of a single fluorescein moiety. Fluorescence Anisotropy Binding Assays. Fluorescence anisotropy measurements were made using a Fluoromax 4 fluorometer in L format, thermostatted at 25° C. Excitation and emission monochromators were set at 492 nm and 520 nm, respectively. Slit widths were 3 nm for diUb-binding assays ([…]) or 6 nm for tetraUb-binding assays ([…]). Anisotropies were calculated by the instrument software, and the overall intensity of the fluorescence signal was monitored at each point with the polarizers oriented at the magic angle. All measurements were made in fluorescence buffer (25 mM Na phosphate [pH 7.4], 150 mM NaCl, 5 mM β-mercaptoethanol, 1 mM EDTA, and either 0.005% surfactant P20 (BIACORE) or 0.05% Brij35). Concentrations of the fluorescent proteins were calculated using the fluorescein extinction coefficient at 494 nm, 68000 M^-1 cm^-1. (poly)Ub concentrations were assessed by absorbance at 280 nm using the extinction coefficient 0.16 (mg/ml)^-1 cm^-1 ([…] and Raasi, 2005). Fluorescence anisotropy data were fit with a single-site binding model as described (Wilkinson, 2004). The equilibrium constants for wild-type Vps27 peptide binding to K63 and K48 Ub4 were determined by competition with the fluorescent Vps27 7aa linker peptide as described (Wilkinson, 2004).

K48-Ub2 = molecular target: T2, K48-Ub2 (Homo sapiens, UniProt P0CG47, K48R); assay: Fluorescence anisotropy binding of fluorescent tUIM peptides to K48-Ub2; conditions: single-site fit, 25° C., pH 7.4
T2 construct: Ub and K48- and K63-linked diUb and tetraUb were made as described; made in house
Description: Fluorescence Anisotropy Binding Assays. Fluorescence anisotropy measurements were made using a Fluoromax 4 fluorometer in L format, thermostatted at 25° C. Excitation and emission monochromators were set at 492 nm and 520 nm, respectively. Slit widths were 3 nm for diUb-binding assays (1 mM fluorophore) or 6 nm for tetraUb-binding assays (0.1 mM fluorophore). Anisotropies were calculated by the instrument software, and the overall intensity of the fluorescence signal was monitored at each point with the polarizers oriented at the magic angle. All measurements were made in fluorescence buffer (25 mM Na phosphate [pH 7.4], 150 mM NaCl, 5 mM β-mercaptoethanol, 1 mM EDTA, and either 0.005% surfactant P20 (BIACORE) or 0.05% Brij35). Concentrations of the fluorescent proteins were calculated using the fluorescein extinction coefficient at 494 nm, 68000 M^-1 cm^-1. (poly)Ub concentrations were assessed by absorbance at 280 nm using the extinction coefficient 0.16 (mg/ml)^-1 cm^-1 ([…] and Raasi, 2005). Fluorescence anisotropy data were fit with a single-site binding model as described (Wilkinson, 2004).

K48-Ub4 [1] = assay: Fluorescence anisotropy binding of fluorescent tUIM peptides to K48-Ub4
From the text: (§1) Fluorescent Labeling. Rap80 tUIM peptides were fluorescently-labeled on the sulfhydryl group of C121 (see FIG. 1). For longer Rap80 constructs, all cysteines except C121 were mutated to serine for site-specific labeling. Ataxin-3 and Vps27 UIM peptides were labeled on a single cysteine introduced at the C-terminus. Fluorescein-5-maleimide (Pierce) was coupled to cysteines following the manufacturer's instructions. After desalting through Sephadex G-25 resin, fluorescein-labeled tUIM peptides were separated from unlabeled peptides by anion-exchange chromatography (MonoQ column, GE Biosciences) by elution with a NaCl gradient in 50 mM Tris buffer, pH 7.9. […] Fluorescence Anisotropy Binding Assays. Fluorescence anisotropy measurements were made using a Fluoromax 4 fluorometer in L format, thermostatted at 25° C. […] Anisotropies were calculated by the instrument software, and the overall intensity of the fluorescence signal was monitored at each point with the polarizers oriented at the magic angle. All measurements were made in fluorescence buffer (25 mM Na phosphate [pH 7.4], 150 mM NaCl, 5 mM β-mercaptoethanol, 1 mM EDTA, and either 0.005% surfactant P20 (BIACORE) or 0.05% Brij35). Concentrations of the fluorescent proteins were calculated using the fluorescein extinction coefficient at 494 nm, 68000 M^-1 cm^-1. […]

K63-Ub4 [2] = molecular target: T3, K63-Ub4 (Homo sapiens, UniProt P0CG47, K63R); assay: Fluorescence anisotropy binding of fluorescent tUIM peptides to K63-Ub4; conditions: fluorescence anisotropy, single-site fit, 25° C., pH 7.4
T3 construct: Ub and K48- and K63-linked diUb and tetraUb were made as described; made in house
From the text: as §1

K63-Ub4 [3] = molecular target: T3, K63-Ub4; assay: SPR of captured GST-UBA proteins with K63-Ub4; assay type: binding; conditions: SPR (Table 4) versus fluorescence anisotropy (Table 5)
Description: Surface Plasmon Resonance. SPR analyses was performed on a Biacore 3000 instrument at 25° C. in HBS-EP buffer (Biacore). Anti-GST antibody (Biacore) was immobilized by amine coupling on a Biacore CM5 chip. GST-UBA proteins were captured on a measurement surface at a density of 150-400 RU; an antibody-coupled surface served as the reference. Ubn chains were applied to the chip with a 5 μl/min flow rate and recorded the response; 50 mM glycine pH 1.8 or 15 mM NaOH was used to remove GST-UBA proteins and renew the surface. The data was fit with a single-site binding model as described in Wilkinson, 2004.

K63-Ub4 and K48-Ub4 = assay: GST pull-down assay with 125I-labeled K63- or K48-Ub4; assay type: binding
Description: Pull-Down Assays. GST-UBA protein was added to 15 μl of glutathione-agarose and the beads were washed with binding buffer [25 mM phosphate pH 7.4, 150 mM NaCl, 10 mM β-mercaptoethanol, 1 mM EDTA, 0.05% (v/v) Brij35]. ^125I-labeled K63 or K48-Ub4 (1 μM) was then added in 100 μl of binding buffer plus 1 mg ml^−1 BSA, and the beads agitated gently for 20 min. at room temperature. The specific radioactivities of ^125I-labeled K63- and K48-Ub4 were normalized beforehand with unlabeled chains. The beads were then washed quickly 2 or 3 times with binding buffer. The bound chains were eluted with SDS-PAGE sample buffer and resolved by SDSPAGE. The Ub4 bands were excised from the gel and quantified with a gamma-counter. “Bound counts” in FIG. 12d and FIG. 15d is the radioactivity (cpm) for a particular band minus the counts in the corresponding gel slice in the negative-control lane.

monoUb = molecular target: T4, monoUb (Homo sapiens, UniProt P0CG47); assay: Fluorescence anisotropy binding of fluorescent UIM peptides to monoUb
T4 construct: Ub and K48- and K63-linked diUb and tetraUb were made as described; made in house
From the text: as §1

K63-Ub4 [4] = assay: Fluorescence anisotropy binding of fluorescent free UBA domains to K63-Ub4; conditions: free UBA domains
From the text: (§2) Fluorescent Labeling. Ede1 UBA, hHR23A UBA1, Dsk2 UBA and Ddi1 UBA were produced as intein fusions and fluorescently labeled using expressed protein ligation as described in Scheibner et al., 2003. The dipeptide used for Ede1 labeling was Cys-Lys, with NHS-rhodamine (Pierce) coupled to the lysine amino group, and was a kind gift from Philip Cole (Johns Hopkins School of Medicine). MALDI mass spectroscopy confirmed the addition of the fluorescent dipeptide to the Ede1 UBA domain and that there was complete cleavage of the initiating methionine residue. hHR23A UBA1, Dsk2, and Ddi1 UBAs were labeled in a similar way, except that the dipeptide contained a fluorescein moiety instead of rhodamine. The fluorescein-labeled dipeptide was made as described in Scheibner et al., 2003. […]
(§3) Fluorescence Anisotropy Binding Assays. Fluorescence anisotropy measurements were performed as described (Sims and Cohen, 2009) using excitation and emission maxima of 492 nm/520 nm (fluorescein), 556 nm/569 nm (Alexa Fluor 546), or 555 nm/578 nm (rhodamine), in binding buffer at 25° C. The concentrations of the fluorescent proteins were calculated using published extinction coefficients (Invitrogen-Molecular Probes). polyUb concentrations were assessed from absorbance at 280 nm using the Ub extinction coefficient of 0.16 (mg per ml)^−1 cm^'1.49. […]

K48-Ub4 [5] = assay: Fluorescence anisotropy binding of fluorescent free UBA domains to K48-Ub4; conditions: free fluorescent UBA domain
From the text: as §2, §3

[6] = single-site fit, 25° C., pH 7.4

ataxin-3 (WT): human ataxin-3 tandem UIM peptide, 2-residue linker DM
Kd (K63-Ub2; [6]): 91 µM
Kd (K48-Ub2): 100 µM
preference for K48-Ub4 over K63-Ub4 (K48-Ub4 [1]; fluorescence anisotropy Kd values, Table 2): 5 fold
Kd (K48-Ub4 [1]; fluorescence anisotropy, single-site fit, 25° C., pH 7.4): 3.3 µM

PSSHHHHHHSSGLVPRGSHMTEEEQFALALKMSEQEAAAEEEEELLRKAIAESLNSC(Fluorescein(5-Mal))RPS [Rap80 2A linker]
Kd (K63-Ub2; [6]): 110 µM
Kd (K48-Ub2): 180 µM
Kd (K63-Ub4 [2]): 19 µM

PSSHHHHHHSSGLVPRGSHMTEEEQFALALKMSEQEAEEEEELLRKAIAESLNSC(Fluorescein(5-Mal))RPS [Rap80 no linker]
Kd (K63-Ub2; [6]): 47 µM

GST-UBA Ede1: GST fusion of the yeast Ede1 UBA domain, dimeric; sequence in Table 3 (GSATTPKSLAVEELSGMGFTEEEAHNALEKCNWDLEAATNFLLDSA; also: GST fusion, dimeric)
K63-Ub4 affinity of the GST fusion tighter than the free domain (K63-Ub4 [3]): 9 fold
preference for K63-Ub4 over K48-Ub4 by pull-down (K63-Ub4 and K48-Ub4; 125I-labeled Ub4 1 μM, bound counts, listed as GST-Ede1): 12 fold and > 11 fold

GST-fmm: functionally monomeric mixture: GST-His homodimers and GST-His/GST-Ede1 heterodimers at about 6:1 (GSATTPKSLAVEELSGMGFTEEEAHNALEKCNWDLEAATNFLLDSA; also: GST-His fusion, mixture of GST-His homodimers and GST-His/GST-Ede1 heterodimers at about 6:1)
Ub4 linkage preference by pull-down (K63-Ub4 and K48-Ub4; 125I-labeled K63-Ub4 versus K48-Ub4): no linkage preference

PSSHHHHHHSSGLVPRGSHMTEEEQFALALKMSEQEAREVNSQEEEEEELLNSC(Fluorescein(5-Mal))RPS [UIM1]
Kd (monoUb): 510 µM
Kd (K63-Ub2; text of Example 2): 230 µM
Kd (K48-Ub2): 280 µM

PSSHHHHHHSSGLVPRGSHMTEEEQEQEAREVNSQEEEEEELLRKAIAESLNSC(Fluorescein(5-Mal))RPS [UIM2]
Kd (monoUb): 520 µM
Kd (K63-Ub2; text of Example 2): 470 µM
Kd (K48-Ub2): 200 µM

Ddi1
difference in Kd for K63- and K48-Ub4 (K63-Ub4 [4]): < 2 fold
Kd (K48-Ub4 [5]): 50 µM

PSSHHHHHHSSGLVPRGSHMTEEEQFALALKMSEQEADMEEEEELLRKAIAESLNSC(Fluorescein(5-Mal))RPS [Rap80 ataxin linker]
Kd (K63-Ub2; [6]): 115 µM
Kd (K48-Ub2): 143 µM
Kd (K63-Ub4 [2]): 20 µM

GST-UBA hHR23A UBA1: GST fusion of human hHR23A UBA1 domain; sequence in Table 3
K63-Ub4 affinity of the GST fusion tighter than the free domain (K63-Ub4 [3]): > 6 fold
